“Also recorded” adds a separate entry of the source.
Columns and labels:
[1] = test system: human CD34+ cell fractions from spleens and bone marrow of AML-37 engrafted mice; assay: RNA-Seq of human CD34+ cells pooled from spleens and bone marrow of treated sAML-engrafted mice; type: in vivo
Procedure: In vivo molecular response to therapeutic splicing modulation. RNA-seq analysis was performed in human CD34+ cell fractions isolated from spleens and bone marrow of 17S-FD-895-treated sAML-engrafted mice. […] The data are set forth in Table 4 following, which formed the basis for calculation of FIG. 17G.
Xenograft sequencing data of 2×150 bp paired end reads were trimmed using cutadapt 1.8.1, aligned using STAR 2.5.0b against the GRCh37 reference FASTA sequence with the Ensembl GRCh37.75 GTF as a splice junction source. Strandedness was inferred using modulate “infer_experiment.py” from the RSeQC package (Wang et al., 2012). Then, transcripts were quantified using Cufflinks v2.2.1 (Trapnell et al., 2010) against the Ensembl GRCh37.75 GTF reference with bias correction against the GRCh37 reference FASTA. This yielded Cufflinks FPKM values. Isoforms sharing gene names were summed to yield gene FPKMs. FPKM values were transformed to generate log 2(FPKM+1) for all transcripts in the sAML isoform signature (FIGS. 11D, 11E, 12D), comparing vehicle versus 10 mg/kg treatment groups for spleen and bone marrow. Then, a heatmap was generated using all transcripts showing a L2FC>0.5 in both tissues, occurring in the opposite direction of the L2FC transcript expression values in sAML versus normal age-matched controls (i.e. L2FC>1 in sAML, L2FC<−0.5 in 10 mg/kg-treated spleen and bone marrow).
Gene expression data in FPKM was submitted to GSEA to determine significant KEGG pathways, and enrichment plots describing ranked gene expression in those pathways. Additional analyses were performed using custom gene sets including genes associated with the top differentially expressed transcript signatures in aged (“aged up”) versus young (“young up”) HPC and sAML (“sAML up”) versus aged (“aged up”) HPC (FIGS. 11D, 11E, 12D). We acknowledge our use of the gene set enrichment analysis, GSEA software, and Molecular Signature Database (see website: broad.mit.edu). […]

[2] = Villa et al., Org Lett 2012; cited from earlier work
[3] = test system: AML-08 human LSC engrafted in NSGS mice; assay: De novo AML PRIMAGRAFT model AML-08: FACS engraftment analysis and serial transplantation; type: in vivo, mouse
Procedure: All animal studies were performed in accordance with UCSD and NIH-equivalent ethical guidelines and were approved by the Institutional Animal Care and Use Committee (IACUC protocol # S06015). For all in vivo experiments, animals of both genders were utilized. Three AML PRIMAGRAFT™ models were established by transplanting AML LSC-enriched cell fractions (either CD34-selected or FACS-purified stem or progenitor cell fractions from primary patient samples) into immunocompromised Rag2^−/−γc^−/−[20] or NOD/SCID-IL2RG mice (Jackson Laboratory) constitutively expressing human SCF, GM-CSF and IL-3 (NSGS) (FIGS. 8A-8D). […]
Mice transplanted with 1-2×10^5 CD34^+ AML LSC-enriched fractions or no-transplant controls were screened for human hematopoietic cell engraftment (CD45^+ cells) in peripheral blood by FACS starting at 7-10 weeks post transplant. At 7-28 weeks post-transplant (7-36 weeks old), mice were euthanized, and peripheral blood and single cell suspensions of hematopoietic organs were analyzed for human cell engraftment by FACS. […]
Flow cytometric analysis was performed on single cell suspensions from each hematopoietic tissue essentially as for primary patient samples, and frequencies of total live human CD45^+ cells, and CD45^+CD34^+CD38^− Lin^− (stem) and CD45^+CD34^+CD38^+ Lin^− (progenitor) cells were determined in each tissue. […]

[4] = test system: AML-37 human LSC engrafted in Rag2−/−γc−/− mice; assay: sAML PRIMAGRAFT model AML-37: FACS engraftment analysis and serial transplantation; type: in vivo, mouse
Procedure: All animal studies were performed in accordance with UCSD and NIH-equivalent ethical guidelines and were approved by the Institutional Animal Care and Use Committee (IACUC protocol # S06015). For all in vivo experiments, animals of both genders were utilized. Three AML PRIMAGRAFT™ models were established by transplanting AML LSC-enriched cell fractions (either CD34-selected or FACS-purified stem or progenitor cell fractions from primary patient samples) into immunocompromised Rag2^−/−γc^−/−[20] or NOD/SCID-IL2RG mice (Jackson Laboratory) constitutively expressing human SCF, GM-CSF and IL-3 (NSGS) (FIGS. 8A-8D). For all transplantations into Rag2^−/−γc^−/− animals, neonatal mice were transplanted with human cells intrahepatically as previously described, and for all transplantations into NSGS animals, sublethally irradiated (300 Rad) adult (6-8 weeks old) mice were transplanted intravenously with 1-2×10^5 CD34^+ human cells.
For in vivo treatments, a 10 mg/mL stock solution of 17S-FD-895 solubilized in DMSO was used. After randomization, AML-engrafted mice were dosed intravenously with 17S-FD-895 (5-10 mg/kg) or vehicle (for AML-08, vehicle control=15% DMSO in PBS; for AML-37, vehicle control=20% DMSO in PBS) three times over a two-week period, with the first dose given on day 1, the second on day 7, and the third on day 14. For preparation of RNA from human LSC-enriched populations, single cell suspensions from spleen and bone marrow were CD34 double-selected (over two LS selection columns, Miltenyi) and 1-2×10^5 cells were collected in lysis buffer or pooled according to treatment group for serial transplantation assays.
Mice transplanted with 1-2×10^5 CD34^+ AML LSC-enriched fractions or no-transplant controls were screened for human hematopoietic cell engraftment (CD45^+ cells) in peripheral blood by FACS starting at 7-10 weeks post transplant. At 7-28 weeks post-transplant (7-36 weeks old), mice were euthanized, and peripheral blood and single cell suspensions of hematopoietic organs were analyzed for human cell engraftment by FACS. Total cell suspensions from bone marrow and spleen were either transplanted immediately or CD34-selected for transplant into secondary recipient mice (1-2×10^5 cells per animal) to expand the cells in vivo. […] Secondary recipient mice were euthanized after 8-23 weeks, and cell suspensions from bone marrow and spleen were CD34-selected for transplant into tertiary recipients for 17S-FD-895 treatment.
The 17S-FD-895 dosing regimen was selected as the maximum number of doses possible for the treatment of three experimental groups with the amount of synthesized compound that was available, and is consistent with weekly IV dosing regimens used in clinical trials of spliceosome inhibitory compounds in patients with solid tumors. Animals were euthanized within two hours after delivery of the final dose of 17S-FD-895, and peripheral blood, spleens and bone marrows were collected for analysis of total human cell and stem and progenitor cell engraftment, and for RNA extraction for splice isoform-specific qRT-PCR.
Flow cytometric analysis was performed on single cell suspensions from each hematopoietic tissue essentially as for primary patient samples, and frequencies of total live human CD45^+ cells, and CD45^+CD34^+CD38^− Lin^− (stem) and CD45^+CD34^+CD38^+ Lin^− (progenitor) cells were determined in each tissue. Analysis of progenitor cell subpopulations was performed for AML-37, with GMP identified as CD123^+CD45RA^+, CMP as […] and megakaryocyte-erythroid progenitors (MEP) as […]. Inclusion/exclusion criteria were pre-established based on minimum CD45^+ cell engraftment rates of 1% in peripheral blood, as determined by previous PRIMAGRAFT™ experiments. […]

CC[C@H](OC)[C@@H](C)[C@H]1O[C@@H]1[C@@H](O)[C@H](C)/C=C/C=C(\C)[C@H]1OC(=O)C[C@H](O)CC[C@@](C)(O)[C@@H](OC(C)=O)/C=C/[C@@H]1C (stereo in doubt) [Formula 17S-FD-895, 17S-FD-895]
GSEA of the “aged up” signature ([1]; 10 mg/kg treated mice versus vehicle): enriched
expression of sAML-specific transcripts STAT6-016 and ITGB2-201 ([1]; higher treatment doses, bone marrow and spleen): reverted to a normal expression pattern
PTK2B transcripts ([1]; spleen and bone marrow, after treatment): decreased
activity over FD-895 [2]: 25 fold
circulating leukemic cells in secondary recipients ([3]; de novo AML model, lower dose): trend towards decreased circulating leukemic cells
decrease in circulating leukemic burden in secondary recipients ([3]; model with high disease burden, serial transplantation, p=0.07): 49%
common myeloid progenitor (CMP) frequency ([4]; AML-37, 5 or 10 mg/kg): slight increase
GMP frequency ([4]; AML-37, 5 or 10 mg/kg, hematopoietic tissues): reduced GMP frequency; also recorded: significantly reduced
human leukemic burden in serial transplant recipients ([4]; recipients of CD34+ cells from 10 mg/kg group versus vehicle controls): marked reduction; also recorded: marked decrease
reduction of human stem cells (CD45+CD34+CD38− Lin−) ([4]; spleens, 10 mg/kg group versus vehicle controls, p<0.05): 68%
reduction of human progenitor cells (CD45+CD34+CD38+ Lin−) ([4]; spleens, 10 mg/kg group versus vehicle controls, p=0.08): 80%
human HSPC frequency ([4]; spleens, 10 mg/kg versus vehicle): decrease in human HSPC frequency
